Experimental findings from publication PMC12648288, “Drastic Impact of Donor Substituents on Xanthenes in the PDT of Glioblastoma” (JACS Au, 2025) are described below.

Like-named read-outs stand apart in the source and are kept apart here.

Data set [1] deals with L929 healthy fibroblast cells. Kind of data set: MTT cell viability, dark and PDT. Particulars: Mus musculus. Type of data set: cell-based. Here is the method:
The time- and concentration-dependent effects of NSeAze and NSeMorph on glioblastoma cells were determined by using the MTT assay (Figure S7). In this regard, U118MG and U87MG cells were administered with NSeMorph (0.5–20 μM) and NSeAze (0.01–2.5 μM) for 24 h to evaluate their dark toxicity. Before PDT application, both cell lines were treated as indicated for 1 h and then exposed to 660 nm LED light for 2 and 1 h, respectively (Figure ). Following overnight incubation, the resulting cell viability was calculated and compared to the effect of both compounds in the absence of irradiation. […]
Cell Culture and Treatment
Human glioblastoma cell lines (U118MG and U87MG) and healthy mouse fibroblast cells (L929) were cultured in DMEM high glucose medium supplemented with 10% fetal bovine serum (FBS), 2 mM glutamine, 1% penicillin/stremptomycin, 0.5% amphotericin B, and incubated at 37 °C with 5% CO2. NSeMorph and NSeAze were dissolved in cell culture-grade DMSO and further diluted in complete medium for experimental use. For phototoxicity analysis, cells were administered with NSeMorph […]
mW/cm2) irradiation for 2 h in NSeMorph-treated groups and 1 h in NSeAze-treated groups. Then, each group were incubated for further 24 h in the dark to allow for resting. On the other hand, the dark toxicity of both agents was detected following the same treatment under identical conditions without LED irradiation. To determine the involvement of distinct ROS types, cells were pretreated for 1 h with selective […]
scavengers prior to photosensitizer exposure. The scavengers included NAC (5 mM), NaN3 (5 mM), histidine (5 mM), Tiron (100 µM), mannitol (25 mM) and Trolox (25 µM).
Cell viability was then assessed following irradiation. For index calculations, all cells were treated with the increasing concentrations (0.5-500 µM) of NSeMorph and NSeAze for 24 h. Final DMSO concentrations were kept below 0.5% (v/v) in all […]
PI=IC50, dark /IC50, light
SI= IC50, light, healthy cells/IC50, light, cancer cells
TI= IC50, dark, healthy cells/IC50, light, cancer cells
The viability of cells treated with NSeMorph and NSeAze was determined with MTT (3-[4,5-dimethylthiazol-2-yl]-2,5-diphenyltetrazoliumbromide) assay. Following the administration of both compounds, the medium was discarded and cells were treated with fresh media containing MTT (0.5 mg/ml) for 2-4 h at 37 °C. Formazan crystals were then solubilized in 10% SDS in 0.01 N HCl, and absorbance was measured at 490 and 570 nm wavelength using microplate reader (Multiskan Sky, Thermo Scientific). Data were normalized to vehicle (DMSO)-treated controls. IC50 values were calculated using nonlinear regression analysis in GraphPad Prism 9.02 (GraphPad Software Inc.). All experiments were performed in technical and biological replicates

A short description of data set [2]: Absorption and emission spectra, fluorescence quantum yield. Type of data set: physicochemical. Particulars: for ε (M^–1 cm^–1) / λabs (nm) / λems (nm): In PBS (pH 7.4, 1% DMSO); for φF (%) fluorescence quantum yield: Reference: methylene blue in MeOH (φF = 23%). Here is the method: First, the absorption and emission spectra of both PSs, NSeMorph and NSeAze, were recorded in PBS buffer (pH 7.4, 1% DMSO).
Photophysical Characterization
Fluorescence Quantum Yield
Fluorescence quantum yields of the samples were investigated using a fluorescence spectrometer (FLS 1000, Edinburgh Instruments) equipped with an integrating sphere accessory. A continuous-wave xenon lamp served as the excitation source, and the emitted fluorescence was detected with a standard photomultiplier (PMT-900) covering a wavelength range of 200-800 nm. During measurements, the PMT was cooled to - 20 °C using a built-in housing to reduce undesired dark current noise.
For quantum yield measurement, an integrating sphere (Edinburgh Instruments) was placed inside the spectrometer's sample compartment. The internal cavity of the sphere was coated with a PTFE-like material, enabling a reflectance of approximately […]
respectively. The sphere had two ports positioned 90° apart. The excitation beam was directed to the sample through the excitation port, and the fluorescence was collected from the emission port. The excitation port of the sphere included a lens to effectively focus the beam on the sample, while the emission port was an open aperture.
Prior to the experiments with the PSs, blank spectra were measured using the reference solvents (PBS, pH 7.4, 1% DMSO). For both measurements (blank and sample), two identical quartz cuvettes with equal volumes were used. Initially, the reference sample was placed inside the sphere, and the emission/excitation slits were adjusted to the excitation wavelength to ensure the PMT's response remained linear during measurements. To cover a scattering range, the emission scans started 20 nm below the actual excitation wavelengths and ended at 900 nm. Additionally, the step size and integration time of the measurements were set to 1 nm and 0.2 seconds, […]
Upon completing all emission measurements of the samples and references, the quantum yields of the samples were determined using the Fluoracle software. The built-in analysis tool calculates the quantum yield (QY) as: […]
where Es (EB) and Ss (SB) are the selected areas for the emitted and scattered signals

Data set [3] can be described thus: n-octanol/PBS distribution (LogP). It is filed as physicochemical. Particulars: Distribution coefficient in n-octanol/PBS solution.
Data set [4] deals with U118MG cells. Kind of data set: Lipid peroxidation (TBARS). It is filed as cell-based, human. Particulars: IC50 concentration, PDT, up to 24 h postirradiation, % of untreated control. Here is the method:
(§1) Further analysis was conducted to elucidate mitochondrial- or lysosomal-localization-dependent cell death mechanisms. For this purpose, lipid peroxidation, a major end product of ROS-mediated cellular damage, was assessed. […] Moreover, the pronounced rise in lipid peroxidation was predominantly evident during the 24 h resting stage rather than immediately after light exposure, as observed with NSeAze. The apparent increase in lipid peroxidation explains the damage to the membranous structures of cells, such as mitochondria, lysosomes, and plasma membranes (Figure a,b). This was further confirmed by the detection of free unsaturated lipid content of cells, which is released upon disruption of the membranous structures.
(§2) Determination of lipid peroxidation
(§3) The effect of NSeMorph and NSeAze on lipid peroxidation was investigated using thiobarbituric acid reactive substances (TBARS) method,1 which is based on measuring malondialdehyde (MDA) levels, the end-product of lipid peroxidation. For this purpose, cells were seeded in 6-well plates at a density of 1 × 10^6 cells/well and incubated overnight. Afterwards, both compounds were administered in IC50 values according to the above-mentioned PDT protocol. The resulting lipid peroxidation was measured following the immediate irradiation and after 24 h of resting stage. After the indicated time periods, cells were harvested and lysed with a RIPA cell lysis buffer (Merck, Germany). The lysates were then prepared according to the TBARS assay protocol. Briefly, the samples were mixed with 0.8% thiobarbituric acid prepared in 20% trichloroacetic acid solution and then incubated for 2 h at 95 °C. Absorbance of the resulting pink-to-red color was measured at 532 nm with a spectrophotometer (Thermo, Germany). Data were expressed as % compared to untreated control group and normalized to cell viability rates (n=6). […]

Data set [5] relates to U87MG cells. The experiment in a line: Lipid peroxidation (TBARS). Type of data set: cell-based, human. Particulars: IC50 concentration, PDT, up to 24 h postirradiation, % of untreated control. The procedure: as §1, §2, §3
Setting [6] is: L929, 1 h incubation, 660 nm LED 2 h (NSeMorph) or 1 h (NSeAze), read-out: IC50 (light).
The mark [7] stands for this setting: L929, dark, 24 h, read-out: IC50 (dark).

The term IC50 denotes the midpoint of a concentration-inhibition curve. Broadly, the logP is the decadic logarithm of the partition coefficient of the neutral form, usually between octanol and water. Higher therefore signals higher lipophilicity. As to `c1cc2nc3ccc(=[N+]4CCC4)cc-3[se]c2cc1N1CCC1` [NSeAze], the IC50 in data set [1] (setting [6]) is < 1 µM. Besides, in data set [1] (setting [7]), the IC50 came out at 129 ± 5.1 µM. Besides, in data set [2], the “ε (M^–1 cm^–1)” value is listed as 15,300 M^–1 cm^–1, the “λabs (nm)” value is recorded as 671 nm, the “λems (nm)” value came to 695 nm and the “φF (%) fluorescence quantum yield” value came to 8.2%. Besides, the logP in data set [3] is 0.81. This molecule gave a Lipid peroxidation in data set [4] of 245.24 ± 5.92%. The Lipid peroxidation in data set [5] is recorded as 309.64 ± 13.20%.
`c1cc2nc3ccc(=[N+]4CCOCC4)cc-3[se]c2cc1N1CCOCC1` [NSeMorph]: the IC50 in data set [1] (setting [6]) was > 20 µM. In addition, the IC50 in data set [1] (setting [7]) is > 500 µM. In data set [2], the “ε (M^–1 cm^–1)” value is on record as 16,600 M^–1 cm^–1, the “λabs (nm)” value turned out to be 671 nm, the “λems (nm)” value is 717 nm and the “φF (%) fluorescence quantum yield” value was 1.1%. For the same molecule, in data set [3], the logP was -0.42. In addition, the Lipid peroxidation in data set [4] was 244.22 ± 2.38%. The same molecule displayed a Lipid peroxidation in data set [5] of 216.73 ± 3.98%.
